This is an account of results in patent US12649733B2, “3,6-diamino-pyridazin-3-yl derivatives, pharmaceutical compositions containing them and their uses as pro-apoptotic agents” (LES LABORATOIRES SERVIER, priority 2019, dated 2026).

Molecules are shown by their SMILES.

The subject of data set [1] is T-ALL patient derived xenograft models. As to conditions: in vivo; cited from earlier work.
Data set [2] relates to hematological malignancies and solid tumors. The note with it: several hematological malignancies and solid tumors; cited from earlier work.
For data set [3], the system named is lymphoid malignancies. The note with it: cited from earlier work.
Data set [4] deals with allogeneic T- and B-cell responses. As to conditions: after skin transplantation; cited from earlier work.
For data set [5], the system named is lymphocyte proliferation. As to conditions: in vitro; cited from earlier work.
Data set [6] relates to allogeneic T-cell. As to conditions: in vitro; cited from earlier work.
The conditions of data set [7]: mice, animal models of arthritis and lupus; cited from earlier work.
The test system of data set [8] is H146 cells. Nature of the data set: H146 cell viability, MTT assay. It is filed as cell-based. As to conditions: Homo sapiens, NCI-H146, 48 h, 48 h exposure. In a few lines:
(§1)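 Viability read by MTT reduction (OD 540 nm after overnight SDS/HCl lysis) after 48 h compound treatment of cells in RPMI 1640/10% FBS. Triplicates at nine concentrations, 3.16-fold apart; four-parameter curve fitting yields IC50.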

The subject of data set [9] is MOLT-4 T-cell Acute Lymphoblastic Leukemia (T-ALL) model. The data set can be described thus: MOLT-4 xenograft efficacy study (tumor growth inhibition). It is filed as in vivo, female NOD SCID mice. The note with it: for % TGI (day 17): 3.75 mg/kg, IV, Q3D6; for activity in vivo after intravenous administration: MOLT-4 xenograft. The procedure: The in vivo therapeutic and pharmacodynamic effects of Bcl-xL-targeting small molecules were determined in MOLT-4 T-cell Acute Lymphoblastic Leukemia (T-ALL) model upon intravenous (IV) administration. The tested compounds were formulated in Hydroxypropyl-β-Cyclodextrin 20%/Hydrogen Chloride 25 mM (HPBCD/HCl). MOLT-4 cells (ATCC No. CRL-1582) were cultured in RPMI supplemented with 10% FBS. Cells were re-suspended in 50% matrigel (BD Biosciences) and 0.1 mL containing 5×10^6 cells was subcutaneously inoculated into the right flank of female NOD SCID mice (Charles River). For efficacy studies, when tumors reached the appropriate volume, mice were randomized (8 animals per group) using Easy stat software. Control vehicle (HPBCD/HCl), Example 73 (3.75 or 7.5 mg/kg) or Example 100 (3.75 mg/kg) were injected IV ([…]-[…]). Mice body weight was monitored three times a week and tumor size was measured using electronic calipers. Tumor volume was estimated by measuring the minimum and maximum tumor diameters using the formula: (minimum diameter)^2 (maximum diameter)/2. At the end of the treatment cycle (day 17), tumor growth inhibition was calculated using the formula: [formula] Response was evaluated as follows: CR (Complete Response) if tumor size was ≤25 mm^3 for at least three consecutive measurements, PR (Partial Response) if tumor size was comprised between 25 mm^3 and half of the starting size for at least three consecutive measurements. Mice were sacrificed at the first measurement for which tumor volume exceeded 2000 mm^3 or at the first signs of animal health deterioration. Efficacy of Example 73 and Example 100 on MOLT-4 xenografts is illustrated in Table 5. Treatment was started 12 days post tumor cells inoculation (average size: 214 mm^3). Vehicle (HPBCD/HCl), Example 73 (3.75 and 7.5 mg/kg) or Example 100 (3.75 mg/kg) were dosed IV each 3 days for a total of 6 administrations.

Data set [10] deals with MOLT-4 cells. The data set can be described thus: MOLT-4 cell viability, MTT assay. As to conditions: Homo sapiens, MOLT-4, 48 h, 48 h exposure. It is filed as cell-based. In a few lines: as §1
For data set [11], the target named is T1, BCLXL (Homo sapiens, UniProt Q07817, V10N/V9A). The data set can be described thus: Fluorescence polarisation assay (PUMA-based probe displacement). Note: 20 nM protein, 10 nM fluorescent probe. It is filed as binding.
T1 sequence (Q07817 with tags, fused parts or gaps V9A/V10N): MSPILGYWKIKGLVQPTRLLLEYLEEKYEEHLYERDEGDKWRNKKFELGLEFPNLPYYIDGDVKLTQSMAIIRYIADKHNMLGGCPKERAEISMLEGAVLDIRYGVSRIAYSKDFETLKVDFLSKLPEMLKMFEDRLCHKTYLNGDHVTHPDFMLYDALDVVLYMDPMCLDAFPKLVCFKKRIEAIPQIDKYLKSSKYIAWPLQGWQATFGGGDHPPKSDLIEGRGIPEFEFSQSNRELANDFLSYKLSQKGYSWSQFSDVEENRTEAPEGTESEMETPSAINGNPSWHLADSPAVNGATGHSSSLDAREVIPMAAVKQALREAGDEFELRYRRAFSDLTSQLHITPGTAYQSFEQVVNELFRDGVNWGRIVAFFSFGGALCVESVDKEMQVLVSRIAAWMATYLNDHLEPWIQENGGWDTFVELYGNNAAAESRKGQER
Data set [12] concerns the target T1, BCLXL. Nature of the data set: AlphaLISA assay (BIM peptide displacement). It is filed as binding. As to conditions: 20 pM protein, 1 nM peptide. A digest of the protocol: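 Competitive displacement of fluorescein-labelled BIM peptide (1 nM) from biotinylated GST-BCL-XL(2-209) (20 pM) in 10 mM HEPES, 150 mM NaCl, 0.05% Tween 20, pH 7.4, 4% DMSO; 11-point dilutions. Overnight at 23° C with acceptor beads, then donor beads 2 h; Alpha signal at 615 nm.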

Data set [13] has as its target T2, Bcl-xL protein (Homo sapiens, UniProt Q07817, N197C).
T2 construct: (2-197)[N197C]; His-His (two His8 stretches joined by a Gly/Ala/Ser/Thr linker)
Nature of the data set: Fluorescence quenching assay (PUMA peptide displacement). It is filed as binding. The note with it: 1 nM protein, 400 nM peptide, 2 hours at 23° C.; KI determined from IC50. In a few lines:
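Compounds were tested as an 11-point series in pH 7.4 HEPES/NaCl/Tween buffer with 5% DMSO, 2 h at 23 °C. Cy5-tagged Bcl-xL(2-197, N197C) at 1 nM and quencher-tagged PUMA peptide at 400 nM were used. Competitive binders restore fluorescence (620/680 nm), and IC50 values were converted to KI.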

Data set [14] concerns T-ALL (T-cell Acute Lymphoblastic Leukemia) and different types of solid tumors. The note with it: pre-clinical models of T-ALL and different types of solid tumors; cited from earlier work.
Data set [15] deals with MOLT-4. As to conditions: mature T-ALL cell line xenograft model MOLT-4; cited from earlier work.

T2 sequence (Q07817 2-197 N197C): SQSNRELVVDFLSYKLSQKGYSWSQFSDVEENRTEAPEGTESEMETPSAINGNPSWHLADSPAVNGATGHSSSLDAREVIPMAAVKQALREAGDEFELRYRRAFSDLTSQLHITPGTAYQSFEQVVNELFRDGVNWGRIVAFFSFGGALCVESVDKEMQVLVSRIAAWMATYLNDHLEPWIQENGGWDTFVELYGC

Regarding `CC1(C)CCC(c2ccc(Cl)cc2)=C(CN2CCN(c3ccc(C(=O)NS(=O)(=O)c4ccc(N[C@H](CCN5CCOCC5)CSc5ccccc5)c(S(=O)(=O)C(F)(F)F)c4)cc3)CC2)C1` [ABT-263], in data set [1], the “activity in T-ALL patient derived xenograft models” value is given as “promising activity”. Also, the “activity in pre-clinical models” value in data set [2] was “has shown activity”. Further, in data set [3], the “antitumor activity in clinical studies” value is “exhibited objective antitumor activity”.

For `CN(C)CC[C@H](CSc1ccccc1)Nc1ccc(S(=O)(=O)NC(=O)c2ccc(N3CCN(Cc4ccccc4-c4ccc(Cl)cc4)CC3)cc2)cc1[N+](=O)[O-]` [ABT-737], in data set [4], the “allogeneic T- and B-cell responses” value was “inhibited allogeneic T- and B-cell responses”. In addition, the “inhibition of lymphocyte proliferation” value in data set [5] is listed as “potent inhibition of lymphocyte proliferation”. Moreover, in data set [1], the “activity in T-ALL patient derived xenograft models” value is “promising activity”. The “allogeneic T-cell activation, proliferation, and cytotoxicity” value in data set [6] was “prevented allogeneic T-cell activation, proliferation, and cytotoxicity”. In addition, the disease severity entry in [7] was “significant decrease in disease severity”.

For the compound `CNCC#Cc1ccc(OCCCc2sc(N(C)c3cc(C)c(Nc4nc5ccccc5s4)nn3)nc2C(=O)O)c(F)c1` [Example 73, 2-({6-[(1,3-Benzothiazol-2-yl)amino]-5-methylpyridazin-3-yl}(methyl)amino)-5-(3-{2-fluoro-4-[3-(methylamino)prop-1-yn-1-yl]phenoxy]propyl)-1,3-thiazole-4-carboxylic acid], the IC50 in [8] was 4.8 nM; in [10], 1.51 nM; in data set [12], 0.0077 nM. Moreover, in [9], the “% TGI (day 17)” value worked out at 56.9%. Moreover, the “activity in vivo after intravenous administration” value (shortened to “activity in vivo”) in data set [9] is “active in vivo”. Further, the Ki in data set [11] is < 1 nM; in data set [13], 2.8 pM.

With `CNCCN(C)CC#Cc1ccc(OCCCc2sc(N(C)c3cc(C)c(Nc4nc5ccccc5s4)nn3)nc2C(=O)O)c(F)c1` [Example 74, 2-({6-[(1,3-Benzothiazol-2-yl)amino]-5-methylpyridazin-3-yl}(methyl)amino)-5-{3-[2-fluoro-4-(3-{methyl[2-(methylamino)ethyl]amino}prop-1-yn-1-yl)phenoxy]propyl}-1,3-thiazole-4-carboxylic acid], the IC50 in [8] worked out at 6.78 nM; in data set [10] it was 6.72 nM; in [12], 0.074 nM. The “activity in vivo” value in data set [9] is recorded as “active in vivo”. Also, the Ki in [11] was 1.1 nM; in data set [13], 6.1 pM.

Turning to `Cc1cc(N(C)c2nc(C(=O)O)c(CCCOc3ccc(C#CCN(C)CCO)cc3F)s2)nnc1Nc1nc2ccccc2s1` [Example 76, 2-({6-[(1,3-Benzothiazol-2-yl)amino]-5-methylpyridazin-3-yl}(methyl)amino)-5-[3-(2-fluoro-4-{3-[(2-hydroxyethyl)(methyl)amino]prop-1-yn-1-yl}phenoxy)propyl]-1,3-thiazole-4-carboxylic acid], the IC50 was found to be 11.3 nM in [8], 2.37 nM in data set [10] and 0.077 nM in [12]. Further, the “activity in vivo” value in data set [9] is reported as “active in vivo”. For the same compound, the Ki in data set [11] was < 1 nM.

As to `Cc1cc(N(C)c2nc(C(=O)O)c(CCCOc3ccc(C#CCO)cc3F)s2)nnc1Nc1nc2ccccc2s1` [Example 100, 2-({6-[(1,3-Benzothiazol-2-yl)amino]-5-methylpyridazin-3-yl}(methyl)amino)-5-{3-[2-fluoro-4-(3-hydroxyprop-1-yn-1-yl)phenoxy]propyl}-1,3-thiazole-4-carboxylic acid], the IC50 came out at 38.6 nM in data set [8], 12.6 nM in data set [10] and 0.032 nM in [12]. Moreover, the “% TGI (day 17)” value in data set [9] turned out to be 64.6%. Besides, the “activity in vivo” value in [9] was “active in vivo”. For the same compound, in data set [11], the Ki was 1.6 nM.

In the case of `CCN(CC)CCNCC(O)CCCN(c1cc(C)c(Nc2nc3ccccc3s2)nn1)c1nc(C(=O)O)c(CCCOc2ccc(C#CCN(C)C)cc2F)s1` (centres unmarked) [Example 170, 2-[[6-(1,3-Benzothiazol-2-ylamino)-5-methyl-pyridazin-3-yl]-[5-[2-(diethylamino)ethylamino]-4-hydroxy-pentyl]amino]-5-[3-[4-[3-(dimethylamino)prop-1-ynyl]-2-fluoro-phenoxy]propyl]thiazole-4-carboxylic acid], the IC50 in data set [8] was 156 nM; in data set [10], 154 nM; in data set [12], 0.014 nM. Moreover, the results for the Ki in data set [11] and in [13] were < 1 nM and 5 pM, respectively.

Consider `Cc1cc(N(CCCC(O)CN2CCC(N)CC2)c2nc(C(=O)O)c(CCCOc3ccc(C#CCN(C)C)cc3F)s2)nnc1Nc1nc2ccccc2s1` (centres unmarked) [Example 171, 2-[[5-(4-Amino-1-piperidyl)-4-hydroxy-pentyl]-[6-(1,3-benzothiazol-2-ylamino)-5-methyl-pyridazin-3-yl]amino]-5-[3-[4-[3-(dimethylamino)prop-1-ynyl]-2-fluoro-phenoxy]propyl]thiazole-4-carboxylic acid], for which the IC50 in [8] came out at 110 nM; in [10], 411 nM; in [12] it was 0.013 nM. Also, the Ki in [11] is < 1 nM; in data set [13], 3.5 pM.

For the compound `Cc1cc(N(CCCC(O)CN2CCNCC2)c2nc(C(=O)O)c(CCCOc3ccc(C#CCN(C)C)cc3F)s2)nnc1Nc1nc2ccccc2s1` (centres unmarked) [Example 172, 2-[[6-(1,3-Benzothiazol-2-ylamino)-5-methyl-pyridazin-3-yl]-(4-hydroxy-5-piperazin-1-yl-pentyl)amino]-5-[3-[4-[3-(dimethylamino)prop-1-ynyl]-2-fluoro-phenoxy]propyl]thiazole-4-carboxylic acid], the IC50 in [8] is 40.2 nM; in [10] it was 160 nM; in data set [12] it was 0.0078 nM. Moreover, the Ki in data set [11] is < 1 nM; in [13], 2.6 pM.

Consider `CN(C)CC#Cc1ccc(OCCCc2sc(N3CCc4cccc(C(=O)Nc5nc6ccccc6s5)c4C3)nc2C(=O)O)c(F)c1` [Example A-1155463], for which the in vivo activity result in [14] is listed as “exhibited in vivo activity”.

With `Cc1c(-c2ccc(N3CCc4cccc(C(=O)Nc5nc6ccccc6s5)c4C3)nc2C(=O)O)cnn1CC12CC3CC(CC(C3)C1)C2` [Example A-1331852], in data set [14], the in vivo activity entry is recorded as “exhibited in vivo activity”. In data set [15], the “in vitro and in vivo activity” value is “in vitro and in vivo activity”.
